Test [1] deals with subjects with alcohol use disorder. The note with it: treatment of AUD, literature, cited from earlier work; for effect size (Cohen's D): meta-analyses.
The test system of test [2] is nicotinic acetylcholine receptors (nAChRs). The note with it: systemic administration or site-directed injections in the VTA (Blomqvist et al., 1996; Ericson et al., 1998); cited from earlier work.
Test [3] relates to dopamine levels in the rat nucleus accumbens. Briefly: in vivo microdialysis in the nucleus accumbens in awake freely moving rats. Further details: species or system Wistar rats. The following applies: for extracellular dopamine levels in the dialysate (percent of baseline): FIG. 1, varenicline 1.5 mg/kg, bupropion 2.5 mg/kg i.p., sampling 140 minutes, preliminary data; for extracellular DA levels / DA release in the rat nAc: FIGS. 1 to 5, overall statement. The method, then: Shown are dopamine levels measured in the dialysate expressed as percent of baseline. Drugs (mg/kg) or control solution (NaCl) was injected i.p. directly after time-point 0.
FIGS. 2 and 3 show results from in vivo microdialysis in the nucleus accumbens in awake freely moving male Wistar rats after injection of varenicline (1.5 mg/kg, i.p.) or bupropion (2.5, 5 and 10 mg/kg i.p.) Dopamine levels in the dialysate are expressed as percent of baseline. Drugs or control solution (NaCl) was injected directly after time-point 0.
FIG. 5 illustrates the Area Under the Curve (AUC) 0-140 minutes (Bup 5 vs Var+Bup 5: p<0.001.
A). Experiments that examine the effects of varenicline and bupropion (separately and in combination) on dopamine release in the nucleus accumbens (nAc; a central part of the brain reward system) using in vivo microdialysis in awake, freely moving rats have commenced. […] Rats were surgically implanted with a microdialysis probe into nAc, which two days later was coupled to a perfusion pump allowing liquid sampling from the extracellular space. After a stable baseline was obtained varenicline (1.5 mg/kg, […].), bupropion (2.5 mg/kg, i.p.) or control solution was administered and sampling continued for 140 minutes. […] Further, as long as bupropion produces an effect, this effect adds to the varenicline effect when the two drugs are given in combination.

Test [4] has as its system relapses to drinking. The note with it: chronic i.m. administration (Wiesbeck et al., 2001); cited from earlier work.
Test [5] has as its system alcohol dependent individuals. The note with it: cited from earlier work.
The subject of test [6] is ethanol-induced stimulation and euphoria. The following applies: McKee et al. (2009); cited from earlier work.

On to `O=C1CC[C@@]2(O)[C@H]3Cc4ccc(O)c5c4[C@@]2(CCN3CC2CC2)[C@H]1O5` [Naltrexone], for which, in test [1], the “Numbers-needed-to-treat (NNT)” value is on record as 8.6 and the “effect size (Cohen's D)” value is reported as 0.2.

Turning to `CNC1(C)C2CCC(C2)C1(C)C` (stereo not shown) [mecamylamine], the “ethanol intake and preference” value in test [2] is given as “reduces”.

As to `CC(=O)NCCCS(=O)(=O)O` [Acamprosate], in test [1], the “Numbers-needed-to-treat (NNT)” value is given as 7.5 and the “effect size (Cohen's D)” value is on record as 0.32.

`CC(NC(C)(C)C)C(=O)c1cccc(Cl)c1` (stereo not shown) [bupropion]: in test [3], the “extracellular dopamine levels in the dialysate (percent of baseline)” value is reported as “raise extracellular dopamine levels” and the “extracellular DA levels / DA release in the rat nAc” value is “increase extracellular DA levels”.

`OCCN1CCN(CC/C=C2\c3ccccc3Sc3ccc(C(F)(F)F)cc32)CC1` [fluphentixole]: the “relapses to drinking as compared to placebo” value in test [4] is “worsened the condition”.

For the compound `c1cnc2cc3c(cc2n1)[C@@H]1CNC[C@H]3C1` [varenicline], in test [5] (females (O'Malley et al., 2017)), the effect result is listed as “no effect”. In addition, in test [5] (male alcoholics (O'Malley et al., 2017)), the effect size is listed as 0.45. The “ethanol-induced stimulation and euphoria” value in test [6] is recorded as “blocked”. In test [3], the “extracellular dopamine levels in the dialysate (percent of baseline)” value was “raise extracellular dopamine levels” and the “extracellular DA levels / DA release in the rat nAc” value was “increase extracellular DA levels”.
